Measured values: ChEMBL document CHEMBL3988442, “University of Dundee, Small-Polar-MMV Screening Library” (2021)
Where “and” joins values, the source holds several entries; their conditions need not be identical. Equal values may be shown once.

How the values were obtained:
Assay type in all cases: functional
[1] = target: T1, Histidine--tRNA ligase (Trypanosoma cruzi (strain CL Brener), UniProt Q4DA54); experiment: Trypanosoma cruzi histidyl tRNA synthetase (Tc-HisRS)
T1 sequence (Q4DA54 whole entry): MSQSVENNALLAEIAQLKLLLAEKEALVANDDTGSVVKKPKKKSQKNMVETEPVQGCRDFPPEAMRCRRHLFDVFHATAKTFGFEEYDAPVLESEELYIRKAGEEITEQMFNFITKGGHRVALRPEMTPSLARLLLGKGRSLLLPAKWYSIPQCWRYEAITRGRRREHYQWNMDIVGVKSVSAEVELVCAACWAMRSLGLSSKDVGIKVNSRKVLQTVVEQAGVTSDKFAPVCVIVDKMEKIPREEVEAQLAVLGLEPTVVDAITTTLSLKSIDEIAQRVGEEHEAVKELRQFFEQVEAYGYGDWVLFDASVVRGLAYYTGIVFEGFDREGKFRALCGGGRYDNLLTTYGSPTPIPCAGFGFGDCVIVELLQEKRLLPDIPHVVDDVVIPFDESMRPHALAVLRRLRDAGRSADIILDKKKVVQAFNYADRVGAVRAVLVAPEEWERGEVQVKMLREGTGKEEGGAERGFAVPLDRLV

[2] = target: Tryptophan--tRNA ligase (Mycobacterium tuberculosis (strain ATCC 25618 / H37Rv), UniProt P9WFT3); experiment: Biochemical assay for Mt-TrpRS
[3] = tested on: Schistosoma mansoni; experiment: High throughput screening of compounds against Schistosoma mansoni motility; set-up: dose or concentration left out as unconfirmed
[4] = target: Chromo domain-containing protein 1 (Saccharomyces cerevisiae (strain ATCC 204508 / S288c) (Baker's yeast), UniProt P32657); experiment: ScCHD-1 Enzyme Inhibition Assay
Sequence of Chromo domain-containing protein 1 (P32657 whole entry, the tested form may be a part): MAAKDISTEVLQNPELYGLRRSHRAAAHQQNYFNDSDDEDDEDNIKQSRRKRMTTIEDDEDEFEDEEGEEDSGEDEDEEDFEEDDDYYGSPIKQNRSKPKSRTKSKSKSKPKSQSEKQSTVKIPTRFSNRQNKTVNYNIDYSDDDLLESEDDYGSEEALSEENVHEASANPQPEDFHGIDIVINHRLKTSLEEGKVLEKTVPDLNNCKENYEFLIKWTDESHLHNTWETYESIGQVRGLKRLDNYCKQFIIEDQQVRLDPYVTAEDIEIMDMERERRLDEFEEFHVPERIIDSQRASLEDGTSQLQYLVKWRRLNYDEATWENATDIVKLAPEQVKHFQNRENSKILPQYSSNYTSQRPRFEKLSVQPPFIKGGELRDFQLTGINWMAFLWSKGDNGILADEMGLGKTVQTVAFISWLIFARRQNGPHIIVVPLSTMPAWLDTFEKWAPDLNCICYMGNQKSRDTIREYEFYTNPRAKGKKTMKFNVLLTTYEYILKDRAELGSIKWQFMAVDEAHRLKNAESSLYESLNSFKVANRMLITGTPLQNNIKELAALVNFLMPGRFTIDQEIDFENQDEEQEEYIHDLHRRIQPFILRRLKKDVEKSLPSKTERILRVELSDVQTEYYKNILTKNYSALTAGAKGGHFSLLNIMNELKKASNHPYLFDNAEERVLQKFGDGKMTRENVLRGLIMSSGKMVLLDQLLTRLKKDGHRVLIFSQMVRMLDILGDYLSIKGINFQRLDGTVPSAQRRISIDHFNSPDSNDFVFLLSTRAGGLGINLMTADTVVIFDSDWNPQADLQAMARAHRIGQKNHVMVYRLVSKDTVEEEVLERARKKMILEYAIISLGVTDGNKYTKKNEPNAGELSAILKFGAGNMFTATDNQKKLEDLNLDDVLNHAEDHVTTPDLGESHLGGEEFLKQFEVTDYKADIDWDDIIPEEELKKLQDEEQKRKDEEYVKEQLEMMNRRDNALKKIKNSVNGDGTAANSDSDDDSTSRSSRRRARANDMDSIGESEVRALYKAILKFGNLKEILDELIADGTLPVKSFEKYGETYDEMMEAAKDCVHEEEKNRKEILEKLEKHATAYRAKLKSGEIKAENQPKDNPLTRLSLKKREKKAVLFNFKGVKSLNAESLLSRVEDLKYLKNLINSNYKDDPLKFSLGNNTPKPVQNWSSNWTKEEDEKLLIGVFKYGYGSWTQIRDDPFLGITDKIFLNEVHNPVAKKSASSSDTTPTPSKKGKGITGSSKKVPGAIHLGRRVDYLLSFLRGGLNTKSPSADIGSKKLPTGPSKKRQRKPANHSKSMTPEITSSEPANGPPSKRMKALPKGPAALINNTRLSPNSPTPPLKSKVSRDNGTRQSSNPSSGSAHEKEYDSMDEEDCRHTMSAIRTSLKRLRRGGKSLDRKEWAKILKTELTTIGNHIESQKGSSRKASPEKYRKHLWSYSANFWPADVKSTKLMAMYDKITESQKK

Sequence of Tryptophan--tRNA ligase (P9WFT3 whole entry): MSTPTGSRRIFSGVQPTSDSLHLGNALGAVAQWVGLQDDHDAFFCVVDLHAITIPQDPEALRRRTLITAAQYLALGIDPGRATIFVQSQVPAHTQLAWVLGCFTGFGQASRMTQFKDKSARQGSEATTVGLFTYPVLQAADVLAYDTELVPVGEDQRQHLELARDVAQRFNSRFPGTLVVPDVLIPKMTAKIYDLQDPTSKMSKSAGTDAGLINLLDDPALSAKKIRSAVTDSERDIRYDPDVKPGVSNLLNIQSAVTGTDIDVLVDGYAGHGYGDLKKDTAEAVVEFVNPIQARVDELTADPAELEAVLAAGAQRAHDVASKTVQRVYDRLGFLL

SMILES	IC50 [1]	other results
c1ccc(CNc2ncc(CN3CCCN4CCC[C@H]4C3)cn2)cc1	39.6 µM and 38.3 µM	
Cc1cnc(N2CCC3(CCN(CC4CCCC4)C3=O)CC2)nc1	> 100 µM	
c1cnnc(N2CCCC(NCc3nc(-c4ccsc4)no3)C2)c1 (stereo not drawn)	> 100 µM	
O=C(O)c1ccc(Cc2cccc(F)c2)nc1	> 100 µM	
O=C(O)c1cncc(Cc2ccccc2F)c1	> 100 µM	
O=C(O)c1ccc2ccc(N3CCN(CC4CC4)CC3)n2c1	38.6 µM and 57.7 µM	
CC(C)n1ccnc1CNC(=O)c1cccc(CCC(C)(C)O)c1	> 100 µM	
Cc1ccc(N2Cc3c(CN(C)C)nn(C)c3C2)nn1	> 100 µM	
Cc1ccc(N2CCCC3(COCCN(c4nccs4)C3)C2)nn1 (stereo not drawn)	> 100 µM	
O=C1N(CC2CCCC2)CCC12CCN(c1ncc(F)cn1)CC2	> 100 µM	
Cc1nccc(C2CN(Cc3ccc(-c4ccccc4C(=O)O)o3)C2)n1	> 100 µM	
O=C(O)c1cncc(Cc2ccc(F)cc2)c1	> 100 µM	
O=C(O)CNc1cc(-c2nccnc2N2CCCC2)c2cc[nH]c2n1	38.4 µM and 34.5 µM	
O=C1N(CC2CC2)CCC12CCN(c1ncccn1)CC2	> 100 µM	
Cc1nc(C)n(CC2CCCN2Cc2nc3ccccc3n2C)n1 (stereo not drawn)	> 100 µM	
Cc1cnc(N2CCCC3(COCCN(c4ccc(C)nn4)C3)C2)nc1 (stereo not drawn)	> 100 µM	
Cc1ccc(N2CC3(CCN(c4nccs4)C3)C2)nn1	> 100 µM	
Cc1nc(C)n(CC2CCCN2Cc2nc3ccccc3nc2C)n1 (stereo not drawn)	> 100 µM	
Cc1ccnc(C2CN(Cc3ccc(-c4ccccc4C(=O)O)o3)C2)n1	48.1 µM and 40.7 µM	
NCC1Cc2cccc(-c3nccc(N4CCC(O)CC4)n3)c2O1 (stereo not drawn)	> 100 µM	

SMILES	IC50 [1]	other results
CC1CCN(c2ccc(C(=O)N3CCCC3c3nncn3C)cn2)CC1 (stereo not drawn)	> 100 µM	
COc1ccc(CNC(=O)C2(C#N)CCCC2)cc1		IC50 [2]: > 195 µM; Percent Effect [3]: -106.9%; IC50 [4]: > 29.5 µM
CN(Cc1nc2ccccc2n1C)CC1CCCN1c1cccnn1 (stereo not drawn)	52.7 µM and 52.1 µM	
Fc1cc(F)cc(CN2CCC(c3cc4ncccc4cn3)CC2)c1	> 100 µM	
Cc1noc(C)c1CN(C)CC1CCCN1c1cccnn1 (stereo not drawn)	> 100 µM	
O=C(O)c1ccccc1-c1ccc(CN2CC(c3ccncn3)C2)o1	52.3 µM and 57.8 µM	
c1cnnc(N2CCCC(NCc3nc(C4CC4)no3)C2)c1 (stereo not drawn)	52.8 µM and 48.2 µM	
Cc1nn(-c2ccccc2Cl)c(C)c1CCC(=O)NCCS(C)(=O)=O	> 100 µM	
c1ccc(-c2nc(CNC3CCCN(c4cccnn4)C3)no2)cc1 (stereo not drawn)	> 100 µM	
Cc1ccc(N2CCCC3(COCCN(c4cnccn4)C3)C2)nn1 (stereo not drawn)	> 100 µM	
CCN(CC)CCNC(=O)CCc1c(C)nn(-c2ccc(Cl)cc2)c1C	> 100 µM	
Cc1ccc(N2CCOCC3(CCCN(c4ncc(F)cn4)C3)C2)nn1 (stereo not drawn)	> 100 µM	
CCN(CC)CCNC(=O)CCc1c(C)nn(-c2cccc(Cl)c2)c1C	> 100 µM	
Fc1ccc(F)c(CN2CCC(c3cnccn3)CC2)c1	> 100 µM	
Cn1nc(Cn2ccnc2)c2c1CN(c1ncccn1)C2	> 100 µM	
c1cnnc(N2CCCC(NCc3nc(-c4cccs4)no3)C2)c1 (stereo not drawn)	> 100 µM	
COCCc1noc(CNC2CCCN(c3cccnn3)C2)n1 (stereo not drawn)	> 100 µM	
Cc1cc(NC(=O)NCCc2ccsc2)n(C)n1		IC50 [2]: > 195 µM; Percent Effect [3]: 10.29%; IC50 [4]: > 29.5 µM
Cc1nc(C)n(CC2CCCN2Cc2nc3ccccc3s2)n1 (stereo not drawn)	> 100 µM	
